The values below come from ChEMBL document CHEMBL1201862, “PubChem BioAssay data set” (2004).

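The compound was tested at five concentrations on cells cultured in 96-well plates, with a 48-hour exposure period. GI50: concentration for 50% inhibition of growth.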 Activity calls are given as the source filed them. Cut-off read from the data, not from the text of the source: active = GI50 up to about 1.1 µM and inactive = higher.

Test systems include RXF 393; UACC-257; SW-620; UACC-62; CAKI-1; SN12C; OVCAR-5; SK-MEL-5; SK-MEL-28; COLO 205; NCI-H460; OVCAR-4; SK-OV-3; HL-60; IGROV-1; NCI-H522; Malme-3M; SF-268; SK-MEL-2; KM12.
What all share (experiment): inhibition of tumour cell growth, NCI panel, 48 h

In the case of `COc1cc(C2C(C(=O)O)=C(CO)Oc3cc4c(cc32)OCO4)cc(OC)c1OC` (stereo not drawn), the GI50 in the assay with RXF 393 was 93.3 µM (inactive); with UACC-257 it was > 100 µM (inactive); with SW-620 it was > 100 µM (inactive); in the assay on UACC-62 it was > 100 µM (inactive); with CAKI-1, 44 µM (inactive); in the assay on SN12C, > 100 µM (inactive). For the same compound, the GI50 in the assay with OVCAR-5 was > 100 µM (inactive); in the assay on SK-MEL-5, > 100 µM (inactive); with SK-MEL-28, 83.6 µM (inactive); with COLO 205, > 100 µM (inactive); in the assay with NCI-H460, > 100 µM (inactive); in the assay on OVCAR-4, > 100 µM (inactive). Besides, the GI50 in the assay with SK-OV-3, with HL-60 and with IGROV-1 was > 100 µM (inactive) in each case.

On to `N/N=C1\C(=O)N(c2ccc(Cl)c(Cl)c2)C(=O)C1C(=O)Nc1ccc(Cl)c(Cl)c1` (stereo not drawn), for which the GI50 is > 100 µM (inactive) in the assay on RXF 393; 71 µM (inactive) with UACC-257; 91.4 µM (inactive) with SW-620; 50.9 µM (inactive) in the assay with NCI-H522; 51.4 µM (inactive) in the assay with UACC-62; 51.5 µM (inactive) with SN12C. Also, the GI50 is 88.7 µM (inactive) in the assay with OVCAR-5; > 100 µM (inactive) with Malme-3M; 55.1 µM (inactive) in the assay on SF-268; 50.4 µM (inactive) with SK-MEL-2; 17.5 µM (inactive) in the assay with SK-MEL-5; 31 µM (inactive) in the assay with SK-MEL-28. Further, the GI50 in the assay on NCI-H460 was 54.5 µM (inactive); in the assay on OVCAR-4, 80.4 µM (inactive); with KM12, 50.7 µM (inactive); in the assay with HL-60, 74.5 µM (inactive); in the assay with IGROV-1, 73.8 µM (inactive).

Consider `C[C@]12CC[C@H](O)C=C1CC[C@@H]1[C@@H]2CC[C@]2(C)C(c3ccc(=O)oc3)CC[C@]12O` (stereo partly drawn), for which the GI50 in the assay on UACC-257 is 0.0181 µM (active); in the assay on SW-620 it was 0.0149 µM (active); with NCI-H522, 0.0125 µM (active); in the assay on UACC-62, 0.0154 µM (active); in the assay on CAKI-1, 0.0151 µM (active); in the assay on SN12C, 0.0125 µM (active). The GI50 in the assay with OVCAR-5 was 0.108 µM (active); in the assay on Malme-3M, 0.0135 µM (active); with SF-268, 0.0125 µM (active); in the assay on SK-MEL-2, 0.0176 µM (active); with SK-MEL-5 it was 0.0125 µM (active); in the assay with SK-MEL-28 it was 0.0266 µM (active). Moreover, the GI50 with COLO 205 was 0.033 µM (active); with NCI-H460, 0.0132 µM (active); with OVCAR-4 it was 0.0146 µM (active); with SK-OV-3, 0.0294 µM (active); in the assay on KM12 it was 0.0336 µM (active); in the assay on IGROV-1, 0.0141 µM (active).

Take `NC(=S)N/N=C1\c2ccccc2CCC1CCC1(O)CCc2ccccc2C1=O` (stereo not drawn): the GI50 is 16.2 µM (inactive) with RXF 393; 18 µM (inactive) with UACC-257; 28 µM (inactive) in the assay with SW-620; 17.8 µM (inactive) in the assay with UACC-62; 58.3 µM (inactive) in the assay on CAKI-1; 18.1 µM (inactive) in the assay with SN12C. For the same compound, the GI50 in the assay on OVCAR-5 is 26 µM (inactive); in the assay on Malme-3M, 19.8 µM (inactive); in the assay on SF-268, 42.1 µM (inactive); in the assay with SK-MEL-5, 15 µM (inactive); in the assay on SK-MEL-28, 20.7 µM (inactive); in the assay with COLO 205, 17.7 µM (inactive). Further, the GI50 in the assay with NCI-H460 was 16 µM (inactive); in the assay with OVCAR-4 it was 34 µM (inactive); in the assay on SK-OV-3, > 100 µM (inactive); in the assay with KM12, 26.9 µM (inactive); in the assay with HL-60, 2.74 µM (inactive); in the assay with IGROV-1 it was 37.8 µM (inactive).

Regarding `Clc1ccc(Cl)c(Nc2ccnc(SCc3ccccc3)n2)c1`, the GI50 in the assay with RXF 393 was 20.4 µM (inactive); in the assay with UACC-257, > 100 µM (inactive); in the assay with SW-620 it was > 100 µM (inactive); in the assay on NCI-H522, 84.9 µM (inactive); with UACC-62, > 100 µM (inactive); in the assay on CAKI-1, > 100 µM (inactive). The GI50 in the assay on SN12C, in the assay with OVCAR-5, with Malme-3M, in the assay with SF-268, with SK-MEL-2 and in the assay on SK-MEL-5 was > 100 µM (inactive) each time. The GI50 in the assay on SK-MEL-28 is > 100 µM (inactive); with COLO 205, > 100 µM (inactive); with NCI-H460, 54.8 µM (inactive); in the assay on OVCAR-4 it was > 100 µM (inactive); in the assay on SK-OV-3, > 100 µM (inactive); in the assay on KM12 it was > 100 µM (inactive). Besides, the GI50 in the assay with IGROV-1 was > 100 µM (inactive).

`COC(=O)c1ccc(N/C=C(/C#N)c2ccsc2)cc1`: the GI50 was 11.4 µM (inactive) with RXF 393; 32.6 µM (inactive) with UACC-257; 21.3 µM (inactive) in the assay with SW-620; 20.5 µM (inactive) with UACC-62; 15.1 µM (inactive) in the assay with CAKI-1; > 10 µM (inactive) with SN12C. Moreover, the GI50 with OVCAR-5 was > 100 µM (inactive); with Malme-3M, 16.8 µM (inactive); in the assay on SF-268, 10.9 µM (inactive); in the assay with SK-MEL-2, 22.2 µM (inactive); in the assay on SK-MEL-28, 15.6 µM (inactive); in the assay on COLO 205, 67.1 µM (inactive). Besides, the GI50 in the assay with NCI-H460 is 32.6 µM (inactive); in the assay on KM12, 12.9 µM (inactive); in the assay with HL-60 it was > 100 µM (inactive); in the assay with IGROV-1 it was 27.1 µM (inactive).

Consider `O=[N+]([O-])c1cc(Cl)cc2cc(Cl)cnc12`, for which the GI50 is > 100 µM (inactive) with RXF 393; 61.4 µM (inactive) in the assay on UACC-257; > 100 µM (inactive) in the assay with SW-620; > 100 µM (inactive) with NCI-H522; 53.2 µM (inactive) with UACC-62; > 100 µM (inactive) in the assay on CAKI-1. Besides, the GI50 with SN12C is > 100 µM (inactive); in the assay with OVCAR-5 it was > 100 µM (inactive); with Malme-3M it was > 100 µM (inactive); with SF-268 it was > 100 µM (inactive); with SK-MEL-5, 62.5 µM (inactive); in the assay on SK-MEL-28 it was > 100 µM (inactive). For the same compound, the GI50 with COLO 205 is > 100 µM (inactive); in the assay with NCI-H460, > 100 µM (inactive); in the assay with OVCAR-4 it was 35.7 µM (inactive); with HL-60, 62.4 µM (inactive); with IGROV-1, 7.35 µM (inactive).

In the case of `CC12Nc3ccccc3C1=C(c1ccccc1)CC1C(=O)OC(=O)C12` (stereo not drawn), the GI50 with RXF 393, in the assay on UACC-257, in the assay on SW-620, in the assay on NCI-H522, in the assay on UACC-62 and in the assay on SN12C was > 100 µM (inactive) throughout. Moreover, the GI50 with OVCAR-5, with Malme-3M, in the assay on SF-268, in the assay on SK-MEL-2, in the assay with SK-MEL-5 and with SK-MEL-28 was > 100 µM (inactive) in each case. In addition, the GI50 with COLO 205, in the assay with NCI-H460, in the assay on OVCAR-4, in the assay with KM12, with HL-60 and in the assay with IGROV-1 was > 100 µM (inactive) each time.

Consider `COc1ccc2c(c1)c1cc(OC)ccc1n2CCCCOc1ccc(-c2c3ccccc3c(-c3ccc(OCCCCn4c5ccc(OC)cc5c5cc(OC)ccc54)cc3)c3ccccc23)cc1`, for which the GI50 in the assay on SW-620, in the assay on NCI-H522, with UACC-62, in the assay on CAKI-1, in the assay on SN12C and with OVCAR-5 was > 100 µM (inactive) throughout. Moreover, the GI50 in the assay with Malme-3M, in the assay with SF-268, with SK-MEL-2, in the assay with SK-MEL-28, in the assay with COLO 205 and in the assay on OVCAR-4 was > 100 µM (inactive) throughout. For the same compound, the GI50 in the assay on SK-OV-3, in the assay with KM12 and in the assay with IGROV-1 was > 100 µM (inactive) each time.

`O=C(Nc1nc2ccc([N+](=O)[O-])cc2s1)C(=O)C(C(=O)c1ccccc1F)C1OC(=O)c2ccccc21` (stereo not drawn): the GI50 in the assay with UACC-257 is 92.5 µM (inactive); in the assay with SW-620, 41.3 µM (inactive); with NCI-H522, 17.4 µM (inactive); with UACC-62 it was 29.6 µM (inactive); in the assay with CAKI-1, 41.4 µM (inactive); with SN12C, 40.5 µM (inactive). Besides, the GI50 was 71 µM (inactive) in the assay with OVCAR-5; 34.2 µM (inactive) in the assay with SF-268; 20.4 µM (inactive) in the assay on SK-MEL-2; 71.9 µM (inactive) in the assay with SK-MEL-5; 32.1 µM (inactive) with SK-MEL-28; 21.3 µM (inactive) with COLO 205. Besides, the GI50 with NCI-H460 is 40.5 µM (inactive); in the assay on OVCAR-4 it was 46.8 µM (inactive); in the assay with SK-OV-3, 29 µM (inactive); in the assay on KM12 it was 55.1 µM (inactive); in the assay on HL-60 it was 20.3 µM (inactive); with IGROV-1 it was 75.5 µM (inactive).

Take `COc1ccc(C(=O)/C(Br)=C/C(=O)O)cc1`: the GI50 was 26.9 µM (inactive) in the assay on UACC-257; 7 µM (inactive) in the assay with NCI-H522; 7.91 µM (inactive) in the assay with UACC-62; 39.3 µM (inactive) in the assay with CAKI-1; 37.8 µM (inactive) in the assay on SN12C; 42.1 µM (inactive) in the assay with OVCAR-5. The GI50 with Malme-3M was 14.8 µM (inactive); in the assay with SF-268, 31.6 µM (inactive); in the assay with SK-MEL-2 it was 9.48 µM (inactive); in the assay on SK-MEL-5 it was 20.7 µM (inactive); in the assay with SK-MEL-28, 23.3 µM (inactive); with COLO 205, 18.7 µM (inactive). The GI50 in the assay with NCI-H460 was 23.2 µM (inactive); in the assay on OVCAR-4, 32.7 µM (inactive); in the assay on SK-OV-3, 69.8 µM (inactive); in the assay on KM12, 14.7 µM (inactive); in the assay with HL-60 it was 27.5 µM (inactive).
